# Test results published in patent publication US9549912B2, “Methods for treating atrial fibrillation” (Armetheon, Inc., priority 2009, dated 2017).
# Tests used:
# [1] = test system: subjects with paroxysmal atrial fibrillation who had implanted pacemakers; assay: Proof of concept study of ATI-2042 in PAF patients with pacemakers: AF burden and AF episodes (Example 1); type: in vivo, human
# Excerpt: Epub 2009 Jan. 26). This study was a proof of concept design seeking preliminary information on the pharmacodynamic effects, safety, and tolerability of the investigational drug ATI-2042 at a variety of doses, in patients with PAF. Patients with advanced DDDRP pacemakers were selected because of the pacemaker's sophisticated diagnostics and the ability to record continuously and log asymptomatic as well as symptomatic episodes. Only post-menopausal or surgically sterile females with a significant PAF burden and pacemakers were included in this study. The pacemakers had to have been in situ for at least 1 month prior to the study and have appropriate arrhythmia diagnostics. In this study, Vitatron pacemakers, models Selection 9000 or T70 pacemakers, were used. […] Although this finding was explored further, it was prudent to commence clinical testing in a population not at risk for this effect. […] The patients underwent screening assessments to assess suitability for the study and to obtain a baseline medical history and examination. The value of this cohort was that the pacemaker was not inserted for bradycardia but for the treatment of AF using various prevention pacing and rate control techniques. The inclusion criteria were as follows: age 18-85 years; […] The initial ATI-2042 dosage for all subjects was 200 mg orally bid, and it was then increased by 200 mg bid for each subsequent study period. Patients received 200 mg bid of ATI-2042 during period 2, 400 mg bid during period 3, 600 mg bid during period 4 and 800 mg bid during period 5, and no drug was administered during baseline and washout periods. “Selection 9000” and “T70” pacemakers (Vitatron, […], The Netherlands) are dual-chamber pacemakers with sophisticated and similar algorithms for AF detection and prevention. Atrial fibrillation detection is based on atrial rate; atrial tachyarrhythmias are detected when the median atrial cycle length is less than that programmed for AT or AF detection. In all patients, atrial fibrillation was detected if the atrial rate was >200 bpm for six consecutive beats, and its end logged if the atrial rate dropped below 200 bpm for 10 beats. […] Pacemaker anti-arrhythmic algorithms were turned off prior to entry into the baseline period and remained turned off until after washout. […] The primary outcome measure, AFB, was defined as the duration of time the subject's cardiac rhythm was AF divided by the total time recorded for that study period, expressed as percent. The total duration of time that the rhythm was AF is a function of the number of PAF episodes and the duration of each episode. Therefore, a reduction in AFB can occur through reduction in either or both of these variables. Atrial fibrillation burden was compared with baseline during the treatment periods. Secondary outcome measures were the number of AF episodes, the safety of ATI-2042, and the incidence and severity of adverse events (AEs). […] Atrial fibrillation burden is given as the percentage of total storage duration. The sample size for this study was selected empirically. All patients who received any amount of study medication were included in the efficacy and safety analysis. Efficacy variables for the study group are described as mean and standard deviation for each study period. Due to the small number of subjects, comparisons of periods 2-6 with baseline were made using estimates from a mixed-effects regression model.
# [2] = Metabolism and elimination features of budiodarone
substance,measurement,setting,value
"(S)-sec-butyl 2-(3-(4-(2-(diethylamino)ethoxy)-3,5-diiodobenzoyl)benzofuran-2-yl)acetate [ATI-2042]",mean AFB (SD),"[1]; 200 mg bid (p2), baseline 20.3+14.6%",5.2+4.2%
same,mean AFB (SD),[1]; 400 mg bid (p3),5.2+5.2%
same,mean AFB (SD),[1]; 600 mg bid (p4),2.8+3.4%
same,mean AFB (SD),[1]; 800 mg bid (p5),1.5 ± 0.5%
same,effect on AFB in refractory PAF patients,[1]; all doses,significantly effective in reducing AFB at all doses
same,decrease in AFB,[1]; all doses (200-800 mg bid),at least 70%
same,number of AF episodes,"[1]; on drug, remained elevated in washout",increased initially
same,relative reduction (RR) in AFB from baseline,"[1]; p2, 200 mg bid",71.2 ± 31.3%
same,mean episode duration (SD),"[1]; p2, 200 mg bid, baseline 4.8+5.2",1.7+2.5 h
same,mean episode duration (SD),"[1]; p3, 400 mg bid",0.6+0.7 h
same,relative reduction (RR) in AFB from baseline,"[1]; p3, 400 mg bid",71.7 ± 20.6%
same,mean episode duration (SD),"[1]; p4, 600 mg bid",0.1+0.2 h
same,relative reduction (RR) in AFB from baseline,"[1]; p4, 600 mg bid",79.9 ± 26.4%
same,mean episode duration (SD),"[1]; p5, 800 mg bid",0.5+0.7 h
same,relative reduction (RR) in AFB from baseline,"[1]; p5, 800 mg bid",86.8 ± 9.8%
same,mean episode duration (SD),[1]; washout,2.4+3.0 h
same,mean AFB (SD),"[1]; washout (p6), no drug",11.7+14.0%
same,metabolism,[2],primarily metabolized by esterases
same,pharmacokinetic features,[2],"short half-life, rapid onset and offset, small volume of distribution, and cytochrome P450-independent elimination"
